The record followed here is patent US12202790B2, “Sulfonamide derivatives having selective Nox inhibiting activity” (GLUCOX BIOTECH AB, priority 2018, dated 2025).

The target in series [1] is Nox1 expressing CHO cells (Homo sapiens (Human), UniProt Q9Y5S8). The series is described as follows: Oxygen consumption in Nox1 expressing CHO cells. The series is classed as cell-based.
The next series concerns the target Nox5 (Homo sapiens (Human), UniProt Q96PH1). The series is described as follows: Amplex Red assay of Nox5 expressing HEK cells. The series is classed as cell-based. Details: key: The sign “—” stands for “inactive”. An excerpt: HEK293 overexpressing Nox4 (CJ Nox4) cells were purchased from Redoxis, Lund, Sweden. HEK 293 cells expressing Nox5, Nox3 (HEK TRex) and CHO cells expressing Nox1, were a kind gift from Vincent Jaque Center Medical Universitaire, Geneva, Switzerland. Nox2 expressed in isolated neutrophils were isolated from whole blood (human), as previously described (Anvari E, et al., Free Radic Res 2015; 49:1308-1318).
HEK293T cells expressing tetracycline-inducible human (Nox3 or Nox4) and HEK293 cells stably expressing human Nox5 were generated as described previously (Serrander et al., 2007a,b). HEK cells were cultured in Dulbecco's modified Eagle medium (DMEM) with 4.5 g/l glucose, supplemented with FBS (10%), penicillin (100 U/ml) and streptomycin […] at 37° C. in air with 5% CO2.
(§1) Reactive oxygen produced in whole cells or in membrane preparation of Nox1, Nox3, Nox4, Nox5 and xanthine oxidase and glucose oxidase were determined using Amplex Red as detection probe of formed H2O2. Amplex Red (10-acetyl-3,7-dihydroxyphenoxazine) in combination with HRP and co-factors reacts with H2O2 in a 1:1 stoichiometry to form a highly fluorescent resorufin excitated at 544 nm producing emission at 590 nm.
Adherent cells (CHO, HEK) were collected by trypsinization, centrifuged, washed with HBSS, counted, and resuspended in HBSS. Cells were seeded in 96-well black flat bottom plates at a density of 50,000-100,000 cells/well. All compounds were dissolved in DMSO and concentrations ranging from 0.003 to 200 μM were tested in Nox cellular assays with a final concentration of DMSO of 1%. Cells were incubated at 37° C. with the compounds for 30 minutes before measurement. Cells expressing Nox1 and Nox2 were activated with the PKC activator PMA (0.1 μM). Nox5 was activated with the Ca2+ ionophore ionomycin (1 μM) and further enforced with PMA. The CJ HEK 293 cells overexpressed Nox4 constitutively. In the HTS screen HEK 293 TRex was used and tetracycline ([…]) was added 18 h before measurement to induce Nox4 expression. Production of hydrogen peroxide by Nox in intact cells was measured using Amplex Red fluorescence as described by Jaquet V, et al., Br J Pharmacol 2011; 164:507-520. Assay reagents including HRP ([…]) and Amplex Red (50 μM) were added to initiate production of hydrogen peroxide. Fluorescence was read in a fluorescence plate reader at 37° C. every minute between 30-60 minutes.

In a further series the target is xanthine oxidase (Bos taurus (Bovine), UniProt P80457). The series is described as follows: Amplex Red xanthine oxidase (XO) assay. It is filed as biochemical. Details: key: The sign “—” stands for “inactive”. As for the experimental part:
as §1
The assay was designed for Amplex Red analysis of production of hydrogen peroxide. Test compounds were incubated with 5 mU/ml bovine derived xanthine oxidase for 15 min at room temperature followed by the addition of substrate and detection mix (final concentrations of 0.2 U/ml HRP, 5 μM hypoxanthine, and 50 μM Amplex Red). As described by Hirano K et al., Antioxid Redox Signal 2015 10; 23:358-374, production of hydrogen peroxide was followed by fluorescence detection during 30 min at 37° C. in a plate reader that use excitation at 544 nm producing emission at 590 nm.

In the next series the target is glucose oxidase (Aspergillus niger, UniProt P13006). The series is described as follows: Amplex Red and glucose oxidase (GO) assay. It is filed as biochemical. Details: key: The sign “—” stands for “inactive”. As for the experimental part: as §1
The assay was performed using a modified form of Invitrogen Amplex™ Red Glucose/Glucose Oxidase Assay Kit Cat no: A22189. Test compounds were incubated with 5 mU/ml glucose oxidase for 30 min at room temperature, followed by the addition of substrate and detection mix (final concentrations of 0.1 U/ml HRP, 10 mM glucose, 50 μM Amplex Red in phosphate buffer pH 7.4) and then fluorescence detection of hydrogen peroxide production was performed during 30 min at 37° C. in a plate reader that use excitation at 544 nm producing emission at 590 nm.

Series [2] can be described thus: Determination of chemical stability. The series is classed as physicochemical. As for the experimental part:
Test compound was pipetted into an HPLC vial, from 10 mM DMSO, to yield 2 μM final concentration in three separate vials containing buffers with different pH. At reaction start the three different buffers were mixed with isopropanol (1:2, buffer:isopropanol). The buffers used were: pH 2 (H3PO4/KH2PO4 10 mM), pH 7.4 (KH2PO4/K2HPO4 10 mM) and pH 10 (Glycine/NaOH 10 mM). Immediately (<1 minute) after buffer or buffer/isopropanol addition, a 100 μl aliquot was added to a separate plate containing 100 μl acetonitrile:H2O (60:40) and Warfarin (internal standard, IS), sealed and frozen at −20° C. This test was made for 2 h and 20 h. Analysis was performed on a XEVO TQ mass spectrometer coupled to an Acquity UPLC system in ESI^+MRM mode, separation on a BEH C18 2×50 mm column.

Series [3] can be described thus: Determination of solubility. To be noted: 10 mM potassium phosphate buffer, aqueous buffer, kinetic from dmso stock; 10 mM potassium phosphate pH 7.4, 24 h, room temperature; read-out: Kinetic solub. It is filed as physicochemical. The protocol:
Two μl of test compound (from 10 mM DMSO stock) were diluted 100× in 10 mM potassium phosphate pH 7.4 in a HPLC glass vial, sealed and incubated for 24 h under rotation (900 rpm) at room temperature. After the incubation 150 μl were transferred to conical glass inserts and centrifuged for 20 min at 10,000×g. Two μl of the supernatant were transferred to a 96-well plate, diluted 100× with acetonitrile/H2O (60/40, vol/vol) and analyzed by LC-MS/MS.

Each structure is given as a SMILES string. Converted amounts (≈) assume the structure as drawn.

Nox1 expressing CHO cells, sequence (Q9Y5S8 whole entry): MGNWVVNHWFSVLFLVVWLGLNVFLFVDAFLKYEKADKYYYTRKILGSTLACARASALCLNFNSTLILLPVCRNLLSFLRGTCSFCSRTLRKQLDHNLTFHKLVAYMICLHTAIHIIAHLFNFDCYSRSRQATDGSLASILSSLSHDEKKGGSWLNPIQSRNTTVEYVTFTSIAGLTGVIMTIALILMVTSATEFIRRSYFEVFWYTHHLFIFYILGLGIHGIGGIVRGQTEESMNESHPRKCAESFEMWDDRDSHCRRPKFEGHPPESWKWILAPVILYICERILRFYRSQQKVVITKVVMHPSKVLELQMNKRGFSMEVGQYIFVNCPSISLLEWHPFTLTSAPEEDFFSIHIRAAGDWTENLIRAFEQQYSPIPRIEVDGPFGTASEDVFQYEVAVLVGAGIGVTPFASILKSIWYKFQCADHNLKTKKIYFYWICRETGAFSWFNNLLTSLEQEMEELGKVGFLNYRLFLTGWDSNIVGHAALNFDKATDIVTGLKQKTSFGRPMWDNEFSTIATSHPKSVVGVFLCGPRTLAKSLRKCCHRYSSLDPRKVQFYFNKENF
Nox1 expressing CHO cells, sequence (P13498 2-195 partner): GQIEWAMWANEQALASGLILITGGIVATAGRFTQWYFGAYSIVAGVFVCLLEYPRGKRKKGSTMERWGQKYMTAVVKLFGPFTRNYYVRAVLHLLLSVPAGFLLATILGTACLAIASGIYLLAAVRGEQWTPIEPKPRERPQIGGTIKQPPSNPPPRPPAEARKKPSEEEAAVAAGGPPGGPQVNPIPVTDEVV
glucose oxidase, sequence (P13006 17-605): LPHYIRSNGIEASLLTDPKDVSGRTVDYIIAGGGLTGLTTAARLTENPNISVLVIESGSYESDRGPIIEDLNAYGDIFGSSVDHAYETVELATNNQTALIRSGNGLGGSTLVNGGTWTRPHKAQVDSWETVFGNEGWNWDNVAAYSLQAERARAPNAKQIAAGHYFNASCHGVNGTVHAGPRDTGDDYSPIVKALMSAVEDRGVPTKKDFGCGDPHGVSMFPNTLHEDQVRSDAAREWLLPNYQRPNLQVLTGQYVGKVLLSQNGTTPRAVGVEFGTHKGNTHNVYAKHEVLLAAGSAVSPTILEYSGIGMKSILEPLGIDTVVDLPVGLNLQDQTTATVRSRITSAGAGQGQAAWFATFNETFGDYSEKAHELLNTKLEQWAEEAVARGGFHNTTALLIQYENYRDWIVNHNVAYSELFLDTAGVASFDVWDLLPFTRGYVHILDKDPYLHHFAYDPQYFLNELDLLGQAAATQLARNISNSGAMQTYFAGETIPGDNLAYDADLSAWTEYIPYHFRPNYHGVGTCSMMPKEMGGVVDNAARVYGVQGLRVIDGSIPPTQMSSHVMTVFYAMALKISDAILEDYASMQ
xanthine oxidase, sequence (P80457 whole entry): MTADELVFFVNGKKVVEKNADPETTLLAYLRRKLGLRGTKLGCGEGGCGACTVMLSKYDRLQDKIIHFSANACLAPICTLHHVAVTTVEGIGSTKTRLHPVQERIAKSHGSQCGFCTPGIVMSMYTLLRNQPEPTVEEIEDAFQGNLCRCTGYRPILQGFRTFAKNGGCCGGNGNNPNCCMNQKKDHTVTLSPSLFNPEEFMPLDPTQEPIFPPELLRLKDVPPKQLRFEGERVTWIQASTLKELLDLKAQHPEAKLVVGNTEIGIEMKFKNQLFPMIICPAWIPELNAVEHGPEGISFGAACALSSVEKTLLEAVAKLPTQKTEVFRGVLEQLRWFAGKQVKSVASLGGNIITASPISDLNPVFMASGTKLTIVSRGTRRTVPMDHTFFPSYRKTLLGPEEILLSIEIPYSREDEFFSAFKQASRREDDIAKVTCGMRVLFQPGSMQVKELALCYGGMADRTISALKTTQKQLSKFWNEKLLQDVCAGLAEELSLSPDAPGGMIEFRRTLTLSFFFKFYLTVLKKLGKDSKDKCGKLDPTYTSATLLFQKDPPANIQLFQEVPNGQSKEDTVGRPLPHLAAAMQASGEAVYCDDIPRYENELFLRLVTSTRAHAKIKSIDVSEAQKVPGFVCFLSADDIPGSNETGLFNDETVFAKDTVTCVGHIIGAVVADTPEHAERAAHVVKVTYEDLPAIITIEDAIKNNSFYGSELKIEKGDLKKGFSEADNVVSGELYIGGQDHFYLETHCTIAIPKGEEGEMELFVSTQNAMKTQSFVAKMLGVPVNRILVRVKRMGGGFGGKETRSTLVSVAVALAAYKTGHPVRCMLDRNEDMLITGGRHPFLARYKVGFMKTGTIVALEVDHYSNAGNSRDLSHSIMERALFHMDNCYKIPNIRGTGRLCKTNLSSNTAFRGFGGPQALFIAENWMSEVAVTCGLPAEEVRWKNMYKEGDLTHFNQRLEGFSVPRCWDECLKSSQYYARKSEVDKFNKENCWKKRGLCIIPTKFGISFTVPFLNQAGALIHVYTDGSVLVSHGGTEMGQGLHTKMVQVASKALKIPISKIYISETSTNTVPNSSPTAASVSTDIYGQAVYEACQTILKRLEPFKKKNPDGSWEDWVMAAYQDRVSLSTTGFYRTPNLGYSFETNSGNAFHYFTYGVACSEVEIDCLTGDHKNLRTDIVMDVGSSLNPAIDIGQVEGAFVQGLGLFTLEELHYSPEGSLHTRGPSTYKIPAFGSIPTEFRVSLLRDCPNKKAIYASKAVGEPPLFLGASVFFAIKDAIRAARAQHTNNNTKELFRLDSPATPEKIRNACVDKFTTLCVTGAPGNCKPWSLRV
Nox5, sequence (Q96PH1 whole entry): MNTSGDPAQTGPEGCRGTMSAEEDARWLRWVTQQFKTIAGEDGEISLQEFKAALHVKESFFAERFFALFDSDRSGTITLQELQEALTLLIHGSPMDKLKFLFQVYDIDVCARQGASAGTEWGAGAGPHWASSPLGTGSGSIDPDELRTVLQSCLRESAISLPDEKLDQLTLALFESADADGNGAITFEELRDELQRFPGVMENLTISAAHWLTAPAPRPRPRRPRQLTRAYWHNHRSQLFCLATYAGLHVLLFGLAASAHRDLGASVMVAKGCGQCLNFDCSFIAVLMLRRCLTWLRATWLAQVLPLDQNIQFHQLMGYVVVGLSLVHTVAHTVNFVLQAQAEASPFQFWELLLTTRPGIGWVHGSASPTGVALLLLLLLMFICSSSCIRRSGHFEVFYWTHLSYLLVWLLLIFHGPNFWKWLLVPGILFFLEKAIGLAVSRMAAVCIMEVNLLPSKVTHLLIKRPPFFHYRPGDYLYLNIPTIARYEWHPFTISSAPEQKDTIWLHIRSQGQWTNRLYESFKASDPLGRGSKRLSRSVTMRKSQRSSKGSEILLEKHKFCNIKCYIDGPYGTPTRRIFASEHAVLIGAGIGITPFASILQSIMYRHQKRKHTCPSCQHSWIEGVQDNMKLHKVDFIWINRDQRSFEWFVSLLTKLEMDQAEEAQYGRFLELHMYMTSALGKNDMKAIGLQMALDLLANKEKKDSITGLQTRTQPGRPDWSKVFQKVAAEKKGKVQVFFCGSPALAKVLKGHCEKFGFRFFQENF

Take `O=S(=O)(NCCc1ccccc1Cl)c1c(Cl)cc(C2CC2)cc1Cl` [Example 26, 2,6-dichloro-N-[2-(2-chlorophenyl)ethyl]-4-cyclopropylbenzene-1-sulfonamide]: the “Inhibition of oxygen consumption in Nox1 expressing CHO cells” value (shortened to “Inhibition of oxygen consumption”) in series [1] was “No”. Besides, the “IC50 Nox5” value at Nox5 was “—”. Also, the “IC50 XO” value at xanthine oxidase is given as “—”. Moreover, at glucose oxidase, the “IC50 GO” value is reported as “—”.
Turning to `COc1cc(C)c(S(=O)(=O)NCCc2ccccc2Cl)c(C)c1` [Example 46, N-[2-(2-chlorophenyl)ethyl]-4-methoxy-2,6-dimethyl-benzenesulfonamide], the “Chem. stab. pH 7.4” value in series [2] is given as “stable”. Besides, the “IC50 Nox5” value at Nox5 is “—”. The solubility kinetic at 24 h in series [3] came out at 16 µM (≈ 5.66 µg/mL). For the same compound, the “IC50 XO” value on xanthine oxidase is on record as “—”.
`COc1cc(C)c(S(=O)(=O)NCCc2ccccc2O)c(C)c1` [Example 47, N-[2-(2-hydroxyphenyl)ethyl]-4-methoxy-2,6-dimethyl-benzenesulfonamide]: the “Chem. stab. pH 7.4” value in series [2] was “stable”. Also, the “IC50 Nox5” value on Nox5 is “—”. Further, in series [3], the solubility kinetic at 24 h is > 100 µM. Moreover, at xanthine oxidase, the “IC50 XO” value is reported as “—”.
For `O=S(=O)(NCCc1ccccc1O)c1c(Cl)cc(Br)cc1Cl` [Example 38, 4-bromo-2,6-dichloro-N-[2-(2-hydroxyphenyl)ethyl]benzenesulfonamide], the “Chem. stab. pH 7.4” value in series [2] was “stable”. Further, the “IC50 Nox5” value at Nox5 is reported as “—”. The solubility kinetic at 24 h in series [3] came to 77 µM (≈ 32.7 µg/mL). Further, on xanthine oxidase, the “IC50 XO” value was “—”.
For the compound `Cc1cc(C)c(S(=O)(=O)NCCc2ccccc2O)c(C)c1` [Example 37, N-[2-(2-hydroxyphenyl)ethyl]-2,4,6-trimethylbenzene-1-sulfonamide], in series [2], the “Chem. stab. pH 7.4” value is on record as “stable”. Further, the “IC50 Nox5” value on Nox5 is given as “—”. For the same compound, the solubility kinetic at 24 h in series [3] was > 100 µM. Moreover, the “IC50 XO” value on xanthine oxidase is on record as “—”.
Turning to `Cc1cc(O)cc(C)c1S(=O)(=O)NCCc1ccccc1O` [Example 48, 4-hydroxy-N-[2-(2-hydroxyphenyl)ethyl]-2,6-dimethyl-benzenesulfonamide], the “Chem. stab. pH 7.4” value in series [2] is listed as “stable”. Also, at Nox5, the “IC50 Nox5” value is recorded as “—”. Also, in series [3], the solubility kinetic at 24 h stood at 97 µM (≈ 31.2 µg/mL). In addition, the “IC50 XO” value on xanthine oxidase is listed as “—”.
On to `Cc1ccccc1CCNS(=O)(=O)c1c(Cl)cc(Br)cc1Cl` [Example 17, 4-bromo-2,6-dichloro-N-[2-(2-methylphenyl)ethyl]benzene-1-sulfonamide], for which the “Chem. stab. pH 7.4” value in series [2] was “stable”. Moreover, the “Inhibition of oxygen consumption” value in series [1] is “No”. In addition, the “IC50 Nox5” value at Nox5 is recorded as “—”. Also, the solubility kinetic at 24 h in series [3] came to 0.16 µM (≈ 0.0677 µg/mL). In addition, at xanthine oxidase, the “IC50 XO” value is listed as “—”. Also, at glucose oxidase, the “IC50 GO” value is “—”.
Regarding `Cc1ccccc1CCNS(=O)(=O)c1c(C)cccc1Cl` [Example 11, 2-chloro-6-methyl-N-[2-(2-methylphenyl)ethyl]benzene-1-sulfonamide], the “Inhibition of oxygen consumption” value in series [1] is reported as “No”. For the same compound, the “IC50 Nox5” value on Nox5 was “—”. Besides, the “IC50 XO” value at xanthine oxidase is recorded as “—”. Further, the “IC50 GO” value on glucose oxidase is given as “—”.
Consider `Cc1ccccc1C(F)CNS(=O)(=O)c1c(Cl)cc(Br)cc1Cl` (racemic) [Example 35, 4-bromo-2,6-dichloro-N-[2-fluoro-2-(2-methylphenyl)ethyl]benzene-1-sulfonamide], for which the “Chem. stab. pH 7.4” value in series [2] was “stable”. Besides, the “IC50 Nox5” value on Nox5 is “—”. The solubility kinetic at 24 h in series [3] came to 4.5 µM (≈ 1.99 µg/mL). On xanthine oxidase, the “IC50 XO” value is on record as “—”.
Regarding `Cc1cc(Cl)c(S(=O)(=O)NCCc2ccccc2O)c(C)c1O` [Example 44, 6-chloro-3-hydroxy-N-[2-(2-hydroxyphenyl)ethyl]-2,4-dimethyl-benzenesulfonamide], in series [2], the “Chem. stab. pH 7.4” value is reported as “stable”. The “IC50 Nox5” value on Nox5 is “—”. In addition, the solubility kinetic at 24 h in series [3] is 94 µM (≈ 33.4 µg/mL). On xanthine oxidase, the “IC50 XO” value is “—”.
